Details of series [1]: method as in PMID 27715007. Conditions: in vivo; cited from earlier work.
In series [2] the target is human D3 receptor triple mutant Y36L, S182I, V350I (Homo sapiens, UniProt P35462, S182I/V350I/Y36L). The series is described as follows: Radioligand binding assay, D3R triple mutant. The following applies: two replicas. As to the method:
(§1) The D3R mutations were located in the OBS or the vicinity of the OBS and were performed on nine different residues (Fig. 1).
(§2) Point mutants were made by site-directed mutagenesis using 0.5 μl Takara’s PrimeStar Hot start polymerase with 20ng D3R wild type template plasmid DNA, 5 × PrimeStar buffer, 4 μl dNTP mix (2.5 mM each dNTP), plus 0.5 μg forward and reverse primers. 18 cycles were performed at 98 °C for 30 seconds, 55 °C for 30 seconds and 72 °C for 6.5 minutes. The template was degraded with DpnI for 1 hr and transformed into DH5α competent cells.
(§3) Mutants were expressed in SF9 insect cells for 48 hrs with an approximate MOI of 5. A list of mutagenesis primers used can be found in Table S3.
(§4) Binding assays were performed on membranes prepared from transiently transfected human D3 receptor mutants in SF9 insect cells. Frozen cell paste was homogenized by Polytron in 50 mM Tris HCl buffer (pH 7.4 at 4 degrees C) containing 2.0 mM MgCl2. […] 7-OH-DPAT levels were determined by liquid scintillation counting of the filterplates in Ecolume scintillation fluid. […] Ki values were calculated according to the Cheng- Prusoff equation, Ki = IC50/(1 + (L/Kd)), where L is the concentration of the radioligand used in the experiment and the Kd value is the dissociation constant for the radioligand at the mutant receptor (determined previously by saturation analysis).

Series [3] has as its target T1, human D3 receptor mutant Y365L (Homo sapiens, UniProt P35462).
T1 construct: Flag tag (N); His tag (C); expressed in transfected cells; host or cells: SF9 insect cells (membranes)
Put plainly: Radioligand binding assay, D3R mutant Y365L. The following applies: two replicas. Here is the method:
as §1, §2, §3, §4

In series [4] the target is T2, human D3 receptor mutant Y36L (Homo sapiens, UniProt P35462, Y36L).
T2 construct: Flag tag (N); His tag (C); expressed in transfected cells; host or cells: SF9 insect cells (membranes)
Put plainly: Radioligand binding assay, D3R mutant Y36L. Conditions: two replicas. Here is the method: as §1, §2, §3, §4

Series [5] has as its target T3, human D3 receptor mutant V189A (Homo sapiens, UniProt P35462, V189A).
T3 construct: Flag tag (N); His tag (C); expressed in transfected cells; host or cells: SF9 insect cells (membranes)
The series is described as follows: Radioligand binding assay, D3R mutant V189A. As to the method: as §1, §2, §3, §4

Series [6] addresses T4, human D3 receptor mutant E90L (Homo sapiens, UniProt P35462, E90L).
T4 construct: Flag tag (N); His tag (C); expressed in transfected cells; host or cells: SF9 insect cells (membranes)
The series is described as follows: Radioligand binding assay, D3R mutant E90L. The following applies: two replicas. Here is the method: as §1, §2, §3
Binding assays were performed on membranes prepared from transiently transfected human D3 receptor mutants in SF9 insect cells. Frozen cell paste was homogenized by Polytron in 50 mM Tris HCl buffer (pH 7.4 at 4 degrees C) containing 2.0 mM MgCl2. The cell membranes were spun in a high-speed centrifuge at 40,000 × g for ten minutes. The final pellet was re-suspended in assay buffer (50 mM Tris buffer, 120 mM NaCl, 5 mM MgCl2, 5 mM KCl, 2 mM CaCl2, pH 7.4 at 37 °C). […] 7-OH-DPAT levels were determined by liquid scintillation counting of the filterplates in Ecolume scintillation fluid.

In series [7] the target is T5, human D3 receptor mutant C114L (Homo sapiens, UniProt P35462, C114L).
T5 construct: Flag tag (N); His tag (C); expressed in transfected cells; host or cells: SF9 insect cells (membranes)
The series is described as follows: Radioligand binding assay, D3R mutant C114L. The following applies: two replicas. As to the method:
as §1, §2, §3, §4

Another series addresses T6, wt-D3R (Homo sapiens, UniProt P35462).
T6 construct: Flag tag (N); His tag (C); expressed in transfected cells; host or cells: SF9 insect cells (membranes), pFastbac/baculovirus
The series is described as follows: Radioligand ([3H]7-OH-DPAT) binding assay, wild type D3R membranes from SF9 cells.

Series [8] concerns the target T7, human D3 receptor mutant E90Q (Homo sapiens, UniProt P35462, E90Q).
T7 construct: Flag tag (N); His tag (C); expressed in transfected cells; host or cells: SF9 insect cells (membranes)
The series is described as follows: Radioligand binding assay, D3R mutant E90Q. The following applies: two replicas. Here is the method:
as §1, §2, §3, §4

The target of series [9] is T8, human D3 receptor mutant Y36F (Homo sapiens, UniProt P35462, Y36F).
T8 construct: Flag tag (N); His tag (C); expressed in transfected cells; host or cells: SF9 insect cells (membranes)
The series is described as follows: Radioligand binding assay, D3R mutant Y36F. Conditions: two replicas. Here is the method:
as §1, §2, §3, §4

Series [10] concerns the target human D3 receptor mutant Y373F (Homo sapiens, UniProt P35462, Y373F). Put plainly: Radioligand binding assay, D3R mutant Y373F. Conditions: two replicas. Here is the method:
as §1, §2, §3, §4

Series [11] has as its target T9, human D3 receptor mutant S182I (Homo sapiens, UniProt P35462, S182I).
T9 construct: Flag tag (N); His tag (C); expressed in transfected cells; host or cells: SF9 insect cells (membranes)
The series is described as follows: Radioligand binding assay, D3R mutant S182I. The following applies: two replicas. Here is the method:
as §1, §2, §3, §4

Series [12] has as its target T10, human D3 receptor mutant I183F (Homo sapiens, UniProt P35462, I183F).
T10 construct: Flag tag (N); His tag (C); expressed in transfected cells; host or cells: SF9 insect cells (membranes)
Put plainly: Radioligand binding assay, D3R mutant I183F. As to the method: as §1, §2, §3, §4

For the next series, the system named is D2R. On the set-up: method as in PMID 27715007. The following applies: cited from earlier work.
For series [13], the target named is T11, human D3 receptor mutant V189I (Homo sapiens, UniProt P35462, V189I).
T11 construct: Flag tag (N); His tag (C); expressed in transfected cells; host or cells: SF9 insect cells (membranes)
Put plainly: Radioligand binding assay, D3R mutant V189I. Conditions: two replicas. As to the method: as §1, §2, §3, §4

The target in another series is D3R. Conditions: Table 1; cited from earlier work.

“And” between values parts separate entries of the source, which are not always exact repeats. Equal entries are not always repeated.

What is called Ki is a dissociation constant, usually derived from enzyme kinetics or from competition with a known ligand. In the case of `CCN1CCO[C@@H](c2ccc(NS(=O)(=O)c3ccc(C(C)C)cc3)c(C)c2)C1` [Compound 1, PF-4363467], the “locomotor or catalepsy side effects” value in series [1] is listed as “lack of locomotor or catalepsy side effects”. In addition, the inhibition constant Ki in series [2] is 29.5 nM and 22 nM; in [3], 13.1 nM and 12.5 nM; in [4], 22 nM and 13 nM; in [5] (D3R mutant V189A, two replicas) it was 24 nM and 30 nM; in [6], 4.9 nM and 3.7 nM; in series [7], 1.6 nM and 1.3 nM. For the same molecule, the Ki at wt-D3R (wild type D3R, Table 1) was 3.4 ± 0.4 nM; in series [8] it was 6 nM and 5.4 nM; in series [9] it was 3.2 nM and 2.5 nM; in series [10], 14.8 nM and 15.8 nM; in series [11], 3.6 nM and 2.1 nM; in series [12] (D3R mutant I183F, two replicas), 55 nM and 43 nM. In addition, in series [13], the inhibitory constant (Ki) is 8.2 nM and 6.5 nM. Further, the “decrease in affinity (fold-shift Ki mutant/Ki wt)” value in series [5] (V189A mutant vs wt D3R) is recorded as 8 fold; in series [12] (I183F mutant vs wt D3R), 14 fold. In addition, on wt-D3R (wt D3R), the “ΔGexp (experimental binding free energy)” value was -11.6 kcal/mol. Moreover, the D2R receptor occupancy in the series on D2R is 86%.

Take `CCc1cc(Cl)c(OC)c(C(=O)NC[C@@H]2CCCN2CC)c1O` [Compound 2, Eticlopride]: the Ki at D3R is 0.24 nM.

The record behind these values is publication PMC5772633 (Scientific Reports, 2018).
